One assay relates to RBL-2H3 cells. Nature of the assay: cells. The format is cell-based, rat. To be noted: Rattus norvegicus; RBL-2H3 cells; read-out: Degran. IC50: concentration inhibiting mast cell degranulation by 50%. As to the method:
These 87 molecules were also tested in vitro to assess the ability thereof to inhibit RBL-2H3 cell degranulation (see table 1).
(§1) • 1) Chemical products and antibodies. A chemical bank of 3000 molecules (a varied subset) was acquired from ChemBridge, Inc. (San Diego, Calif.). Stocks of solutions of small molecules were prepared at a rate of 10 mM in DMSO (dimethylsulphoxide), except for C-13 (methyl 2-{5-[(3-benzyl-4-oxo-2-thioxo-1,3-thiazolidin-5-ylidene)methyl]-2-furyl}benzoate, ChemBridge ID No. 6197026) prepared in DMF (dimethylformamide). Unless specified otherwise, all the reagents were supplied by Sigma. Dinitrophenyl (DNP) hapten was acquired from Calbiochem. Sepharose GammaBind G and all the secondary antibodies were supplied by GE Health Amersham Biosciences. The anti-Syk, anti-Lyn, anti-Btk, anti-PLC-γ1, anti-PLC-γ2, anti-LAT, anti-SLP-76, anti-p38, anti-JNK, anti-Vav, anti-Akt1 and 9E10 antibodies conjugated with HRP were acquired from Santa Cruz Biotechnology. The anti-phospho-p44/42 MAP Kinase, anti-p44/42 MAP Kinase, anti-phospho-p38, anti-phospho-JNK, anti-phospho-Akt1 antibodies were acquired from Cell Signaling. The anti-phospho-LAT and anti-phospho-PLC-γ1 antibodies were supplied by Biosource and the anti-phospho-SLP-76 antibodies by BD Pharmingen. The 4G10 anti-phosphotyrosine monoclonal antibody was acquired from Upstate Biotechnology. • 2) ADA method: ELISA type high-speed molecule screening test, based on antibody displacement (WO 2005106481). The recombinant fusion protein GST:Syk 6-242^8 comprising the residues 6 to 242 of murine Syk tyrosine kinase protein illustrated in FIG. 8B (SEQ ID No. 4) was immobilised on an ELISA plate at a final concentration of 10 μg ml^−1. For the screening of the chemical molecule bank, the small molecules, diluted in PBS at a final concentration of 10 μM were added to the wells for one hour at ambient temperature, before adding the fragment scFv G4G11 at a final concentration of 100 nM for an additional hour. The binding of G4G11 with Syk was assessed by adding the 9E10 monoclonal antibody conjugated with HRP detecting the amino acid sequence EQKLISEEDLN of human c-myc protein located at the C-terminal end of the scFv fragment. To generate Syk mutants, targeted mutagenesis was used on GST:Syk 6-242 protein and the binding of G4G11 with the mutants was assessed in the presence of 5 μM of C-13. • 3) Cells, culture conditions and functional tests. Anti-DNP 2682-I mouse monoclonal antibody was used as the culture supernatant of hybridomas containing 1 μg/ml of IgE. Femoral bone marrow cells were sampled and cultured in Opti-MEM medium (Gibco) supplemented with 10% foetal calf serum and 4% X63 transfectant supernatant secreting murine IL-3. RBL-2H3 (ATCC) leukaemic rat basophil cells were maintained in a single-layer culture in RPMI 1640 medium supplemented with 10% foetal calf serum (Gibco). Measurements of β-hexosaminidase released by the RBL-2H3 cells were performed as described previously^7, except that, after 12-16 hours of incubation with anti-DNP IgE (0.5 μg/ml), the cells were incubated for 90 min at 37° C. in RPMI medium supplemented with the specified concentrations of C-13 or DMF (0.25%). The cells were stimulated for 45 min with DNP-BSA (50 ng ml^−1) or ionomycin (1.5 μM). The BMMC cells were incubated for one hour at 37° C. with anti-DNP IgE (100 ng/ml). They were then incubated with C-13 (3 μM) or DMF (0.3%) for 3 hours at 37° C., and stimulated with varied concentrations of DNP-BSA. The level of β-hexosaminidase released was measured 10 min later and the TNF-α titration was performed by means of a cytotoxicity test on L929 cells as described previously^10, 3 hours after stimulation. The results illustrated in FIG. 3 are representative of three independent experiments. • 4) Immunoprecipitations, in vitro kinase assays and immunodetection. […]

For assay [1], the target named is T1, murine Syk tyrosine kinase protein (GST:Syk 6-242) (Mus musculus, UniProt P48025).
T1 construct: made in house
Nature of the assay: ADA method: displacement of the binding of scFv G4G11 with Syk (ELISA). To be noted: small molecules at 10 μM, scFv G4G11 100 nM; read-out: In vit. inhib.: mean inhibition % of the binding of scFv G4G11 with Syk in the ADA method.
Description: The term “percentage of inhibition” of the binding of an antibody or antibody fragment with Syk protein, particularly refers to the ratio […], where A consists of the intensity of a signal proportional to the quantity of an antibody or antibody fragment bound with Syk protein in the absence of a molecule according to the invention and B the intensity of the same signal in the presence of a molecule according to the invention under the same conditions. […] This test may be performed for example according to the protocol described in example 3-2) hereinafter.
The inventors developed the ADA (Antigen Displacement Assay) method to identify small molecules capable of displacing the association with scFv G4G11 with Syk. […] To understand the mode of action of C-13, the inventors firstly identified the binding site of G4G11 using the SPOT method^16. An epitope located on the N-terminal SH2 domain of Syk, comprising amino acids 65-74 and 100% preserved in mouse, rat and human sequences, was identified.
The ADA method was then applied to each of these […] molecules to measure the ability thereof to inhibit the binding of scFv G4G11 with Syk.
as §1, with “(Gibco).” for “(Gibco). Measurements of β-hexosaminidase released by the RBL-2H3 cells were performed as described previously^7, except that, after 12-16 hours of incubation with anti-DNP IgE (0.5 μg/ml), the cells were incubated for 90 min at 37° C. in RPMI medium supplemented with the specified concentrations of C-13 or DMF (0.25%). The cells were stimulated for 45 min with DNP-BSA (50 ng ml^−1) or ionomycin (1.5 μM). The BMMC cells were incubated for one hour at 37° C. with anti-DNP IgE (100 ng/ml). They were then incubated with C-13 (3 μM) or DMF (0.3%) for 3 hours at 37° C., and stimulated with varied concentrations of DNP-BSA. The level of β-hexosaminidase released was measured 10 min later and the TNF-α titration was performed by means of a cytotoxicity test on L929 cells as described previously^10, 3 hours after stimulation. The results illustrated in FIG. 3 are representative of three independent experiments. • 4) Immunoprecipitations, in vitro kinase assays and immunodetection.”

SMILES strings stand for the structures.

The source of these data is patent publication US9504676B2, “Molecules inhibiting a metabolic pathway involving the Syk protein tyrosine kinase and method for identifying said molecules” (CENTRE NATIONAL DE LA RECHERCHE SCIENTIFIQUE, priority 2008, dated 2016).

In the case of `COc1ccc(OC)c(C2C(C(=O)c3ccccc3)=C(O)C(=O)N2CCCn2ccnc2)c1` (stereo not shown) [Molecule 5, 4-benzoyl-5-(2,5-dimethoxyphenyl)-3-hydroxy-1-[3-(1H-imidazol-1-yl)propyl]-1,5-dihydro-2H-pyrrol-2-one], the IC50 in the assay on RBL-2H3 cells was above 10 mg/L. The inhibition at 10 µM in assay [1] was found to be 77.5%.

Consider `COc1ccccc1C1C(C(=O)c2cc(C)ccc2C)=C(O)C(=O)N1CCN1CCOCC1` (stereo not shown) [Molecule 7, 4-(2,5-dimethylbenzoyl)-3-hydroxy-5-(2-methoxyphenyl)-1-[2-(4-morpholinyl)ethyl]-1,5-dihydro-2H-pyrrol-2-one], for which, in the assay with RBL-2H3 cells, the IC50 is above 10 mg/L. Further, the inhibition at 10 µM in assay [1] was determined as 72%.

On to `COc1cc(C2C(C(=O)c3cccs3)=C(O)C(=O)N2CCc2ccccc2)cc(Br)c1O` (stereo not shown) [Molecule 8, 5-(3-bromo-4-hydroxy-5-methoxyphenyl)-3-hydroxy-1-(2-phenylethyl)-4-(2-thienylcarbonyl)-1,5-dihydro-2H-pyrrol-2-one], for which the IC50 in the assay with RBL-2H3 cells was above 10 mg/L. The inhibition at 10 µM in assay [1] is 71%.

On to `O=C(C1=C(O)C(=O)N(Cc2cccnc2)C1c1cccc(Oc2ccccc2)c1)c1ccc(F)cc1` (stereo not shown) [Molecule 9, 4-(4-fluorobenzoyl)-3-hydroxy-5-(3-phenoxyphenyl)-1-(3-pyridinylmethyl)-1,5-dihydro-2H-pyrrol-2-one], for which the IC50 in the assay with RBL-2H3 cells was above 10 mg/L. In assay [1], the inhibition at 10 µM is 71%.

As for `COc1ccc(OC)c(C2C(C(=O)c3ccc(C)cc3)=C(O)C(=O)N2Cc2cccnc2)c1` (stereo not shown) [Molecule 11, 5-(2,5-dimethoxyphenyl)-3-hydroxy-4-(4-methylbenzoyl)-1-(3-pyridinylmethyl)-1,5-dihydro-2H-pyrrol-2-one], in the assay on RBL-2H3 cells, the IC50 is above 10 mg/L. In addition, the inhibition at 10 µM in assay [1] amounted to 70.5%.

`CCOC(=O)c1[nH]c(N2C(=O)C(O)=C(C(=O)c3ccccc3)C2c2ccc(OC)cc2)nc1C` (stereo not shown) [Molecule 12]: the IC50 in the assay on RBL-2H3 cells is above 10 mg/L. For the same molecule, the inhibition at 10 µM in assay [1] stood at 69%.

With `COc1ccc(C(=O)C2=C(O)C(=O)N(CCN3CCOCC3)C2c2cccnc2)c(C)c1` (stereo not shown) [Molecule 14, 3-hydroxy-4-(4-methoxy-2-methylbenzoyl)-1-[2-(4-morpholinyl)ethyl]-5-(3-pyridinyl)-1,5-dihydro-2H-pyrrol-2-one], the IC50 in the assay with RBL-2H3 cells was above 10 mg/L. Besides, the inhibition at 10 µM in assay [1] worked out at 67.5%.

Consider `COC(=O)c1sc(N2C(=O)C(O)=C(C(=O)c3ccccc3)C2c2ccc(C)cc2)nc1C` (stereo not shown) [Molecule 16, methyl 2-[3-benzoyl-4-hydroxy-2-(4-methylphenyl)-5-oxo-2,5-dihydro-1H-pyrrol-1-yl]-4-methyl-1,3-thiazole-5-carboxylate], for which, in the assay with RBL-2H3 cells, the IC50 is above 10 mg/L. In addition, the inhibition at 10 µM in assay [1] came out at 67%.

`CC(C)c1ccc(C2C(C(=O)c3ccc(F)cc3)=C(O)C(=O)N2CCCN2CCOCC2)cc1` (stereo not shown) [Molecule 19, 4-(4-fluorobenzoyl)-3-hydroxy-5-(4-isopropylphenyl)-1-[3-(4-morpholinyl)propyl]-1,5-dihydro-2H-pyrrol-2-one]: in the assay with RBL-2H3 cells, the IC50 was above 10 mg/L. For the same molecule, the inhibition at 10 µM in assay [1] turned out to be 60%.

For the molecule `Cc1cccc(OCC(=O)Nc2cccc3c(NC(=O)COc4cccc(C)c4)cccc23)c1` [Molecule 20], the IC50 with RBL-2H3 cells is above 10 mg/L. Also, the inhibition at 10 µM in assay [1] stood at 60%.

Regarding `COc1cc(NS(=O)(=O)c2ccc(NC(C)=O)cc2)c(OC)cc1NC(=O)c1ccccc1` [Molecule 21, N-[4-({[4-(acetylamino)phenyl]sulphonyl}amino)-2,5-dimethoxyphenyl] benzamide], the IC50 with RBL-2H3 cells was above 10 mg/L. For the same molecule, the inhibition at 10 µM in assay [1] was 58%.

With `Cc1ccc(-n2c3c(cc(C(=O)NC4CC(C)(C)NC(C)(C)C4)c2=O)C(=O)CC(C)(C)C3)cc1` [Molecule 22, 7,7-dimethyl-1-(4-methylphenyl)-2,5-dioxo-N-(2,2,6,6-tetramethyl-4-piperidinyl)-1,2,5,6,7,8-hexahydro-3-quinoline carboxamide], in the assay on RBL-2H3 cells, the IC50 is above 10 mg/L. Besides, in assay [1], the inhibition at 10 µM turned out to be 57.5%.

Regarding `O=C(O)CCC(=O)N(Cc1ccccc1)Cc1cn(-c2ccccc2)nc1-c1cccs1` [Molecule 23, 4-(benzyl{[1-phenyl-3-(2-thienyl)-1H-pyrazol-4-yl]methyl}amino)-4-oxo butanoic acid], the IC50 with RBL-2H3 cells is above 10 mg/L. The inhibition at 10 µM in assay [1] stood at 57%.

As for `COc1cccc(C2C(C(=O)c3ccc(F)cc3)=C(O)C(=O)N2CCCN2CCOCC2)c1` (stereo not shown) [Molecule 24, 4-(4-fluorobenzoyl)-3-hydroxy-5-(3-methoxyphenyl)-1-[3-(4-morpholinyl)propyl]-1,5-dihydro-2H-pyrrol-2-one], in the assay with RBL-2H3 cells, the IC50 is above 10 mg/L. Moreover, the inhibition at 10 µM in assay [1] was found to be 57%.
